From patent US20220323406A1, “METHODS AND COMPOSITIONS FOR DIFFERENTIATING STEM CELLS” (Massachusetts Institute of Technology, priority 2019, published 2022) come the findings set out here.

Test [1] concerns ENR+CD organoids (ISC to Paneth cell differentiation). In words: Primary screen: basal (non-stimulated) lysozyme secretion LYZ.NS, 2.5-D 384-well ENR+CD organoid differentiation. The test is classed as cell-based, mouse. The following applies: primary screen; for Z.LYZ.NS: standard z score. The source says: (§1) High-throughput screening.
For test [2] the test system is unchanged. The experiment in a line: Primary screen: CCh-stimulated lysozyme secretion LYZ.S, 2.5-D 384-well ENR+CD organoid differentiation. The following applies: primary screen. It is filed as cell-based, mouse.
Description: as §1

The test system of test [3] is ENR+CD organoids. In words: Primary screen: ATP (CellTiter-Glo 3D, CTG) cell number/viability, 2.5-D 384-well ENR+CD organoids.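 On all read-outs here: compounds given at plating and again on day 3 over a 6-day differentiation from ENR+CV stem-cell-enriched precursors, ATP measured on day 6, plate median as control.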 The following applies: primary screen; for Z.CTG: standard z score. (In general: ATP-based viability assays read luminescence as a measure of living cells.)

With `CN(C)C(=O)[C@H](O)[C@H](Cc1ccccc1)NC(=O)c1cc2cc(Cl)ccc2[nH]1` [CP-91149], the Dose.FC.LYZ.NS in test [1] (dose 0.08 uM) is reported as 0.177 log2 fold change; in test [1] (dose 0.40 uM), −0.033 log2 fold change; in test [1] (dose 2.00 uM), 0.028 log2 fold change; in test [1] (dose 10.00 uM) it was −0.057 log2 fold change. For the same molecule, the Z.LYZ.NS in test [1] (dose 0.08 uM) is 1.538; in test [1] (dose 0.40 uM), −0.289; in test [1] (dose 2.00 uM), 0.245; in test [1] (dose 10.00 uM) it was −0.498. Further, the Dose.FC.LYZ.S is reported as 0.186 log2 fold change in test [2] (dose 0.08 uM), 0.055 log2 fold change in test [2] (dose 0.40 uM), −0.121 log2 fold change in test [2] (dose 2.00 uM) and −0.097 log2 fold change in test [2] (dose 10.00 uM). Moreover, the Dose.FC.CTG in test [3] (dose 0.08 uM) is given as 0.031 log2 fold change; in test [3] (dose 0.40 uM) it was −0.023 log2 fold change; in test [3] (dose 2.00 uM), −0.098 log2 fold change; in test [3] (dose 10.00 uM) it was −0.100 log2 fold change. Moreover, the Z.CTG in test [3] (dose 0.08 uM) is reported as 0.073; in test [3] (dose 0.40 uM), −0.056; in test [3] (dose 2.00 uM), −0.234; in test [3] (dose 10.00 uM) it was −0.239.
For the molecule `COCCOc1ccc2c(c1)ncn2-c1ccc2cccc(N3CCC(N)CC3)c2n1` [CP-673451], the Dose.FC.LYZ.NS in test [1] (dose 0.08 uM) is 0.031 log2 fold change; in test [1] (dose 0.40 uM), 0.066 log2 fold change; in test [1] (dose 2.00 uM) it was 0.102 log2 fold change; in test [1] (dose 10.00 uM), −0.058 log2 fold change. Further, the Z.LYZ.NS is listed as 0.274 in test [1] (dose 0.08 uM), 0.577 in test [1] (dose 0.40 uM), 0.886 in test [1] (dose 2.00 uM) and −0.508 in test [1] (dose 10.00 uM). The Dose.FC.LYZ.S in test [2] (dose 0.08 uM) is recorded as 0.096 log2 fold change; in test [2] (dose 0.40 uM), −0.046 log2 fold change; in test [2] (dose 2.00 uM), 0.080 log2 fold change; in test [2] (dose 10.00 uM), −0.147 log2 fold change. Besides, the Dose.FC.CTG in test [3] (dose 0.08 uM) is 0.069 log2 fold change; in test [3] (dose 0.40 uM), 0.186 log2 fold change; in test [3] (dose 2.00 uM), 0.008 log2 fold change; in test [3] (dose 10.00 uM), −0.258 log2 fold change.
`O=C(O)c1cc2cccc([N+](=O)[O-])c2[nH]1` [CRT0044876]: the Dose.FC.LYZ.NS in test [1] (dose 0.08 uM) came out at 0.016 log2 fold change; in test [1] (dose 0.40 uM), 0.034 log2 fold change; in test [1] (dose 2.00 uM), 0.047 log2 fold change; in test [1] (dose 10.00 uM) it was 0.032 log2 fold change. For the same molecule, the Z.LYZ.NS in test [1] (dose 0.08 uM) is recorded as 0.135; in test [1] (dose 0.40 uM) it was 0.298; in test [1] (dose 2.00 uM), 0.408; in test [1] (dose 10.00 uM), 0.278. Moreover, the Dose.FC.LYZ.S in test [2] (dose 0.08 uM) is reported as −0.002 log2 fold change; in test [2] (dose 0.40 uM), 0.055 log2 fold change; in test [2] (dose 2.00 uM) it was 0.014 log2 fold change; in test [2] (dose 10.00 uM), −0.061 log2 fold change. In addition, the Dose.FC.CTG is −0.171 log2 fold change in test [3] (dose 0.08 uM), −0.040 log2 fold change in test [3] (dose 0.40 uM), −0.081 log2 fold change in test [3] (dose 2.00 uM) and −0.099 log2 fold change in test [3] (dose 10.00 uM). Moreover, the Z.CTG is on record as −0.410 in test [3] (dose 0.08 uM), −0.096 in test [3] (dose 0.40 uM), −0.192 in test [3] (dose 2.00 uM) and −0.237 in test [3] (dose 10.00 uM).
Take `O=C(/C=C/c1ccc(O)c(O)c1)OCCc1ccccc1` [Caffeic Acid Phenethyl Ester]: the Dose.FC.LYZ.NS in test [1] (dose 0.08 uM) is listed as 0.053 log2 fold change; in test [1] (dose 0.40 uM), 0.167 log2 fold change; in test [1] (dose 2.00 uM), 0.090 log2 fold change; in test [1] (dose 10.00 uM), −0.026 log2 fold change. For the same molecule, the Z.LYZ.NS in test [1] (dose 0.08 uM) is 0.465; in test [1] (dose 0.40 uM), 1.453; in test [1] (dose 2.00 uM), 0.781; in test [1] (dose 10.00 uM), −0.227. Besides, the Dose.FC.LYZ.S is 0.189 log2 fold change in test [2] (dose 0.08 uM), 0.070 log2 fold change in test [2] (dose 0.40 uM), −0.021 log2 fold change in test [2] (dose 2.00 uM) and −0.117 log2 fold change in test [2] (dose 10.00 uM). The Dose.FC.CTG in test [3] (dose 0.08 uM) was 0.262 log2 fold change; in test [3] (dose 0.40 uM), −0.011 log2 fold change; in test [3] (dose 2.00 uM), −0.064 log2 fold change; in test [3] (dose 10.00 uM), −0.511 log2 fold change.
As to `Cc1ccc([C@@H]2O[C@H](CO)[C@@H](O)[C@H](O)[C@H]2O)cc1Cc1ccc(-c2ccc(F)cc2)s1` [Canagliflozin], the Dose.FC.LYZ.NS is recorded as −0.027 log2 fold change in test [1] (dose 0.08 uM), −0.046 log2 fold change in test [1] (dose 0.40 uM), 0.025 log2 fold change in test [1] (dose 2.00 uM) and −0.064 log2 fold change in test [1] (dose 10.00 uM). Besides, the Z.LYZ.NS in test [1] (dose 0.08 uM) is −0.233; in test [1] (dose 0.40 uM) it was −0.398; in test [1] (dose 2.00 uM), 0.214; in test [1] (dose 10.00 uM), −0.556. Moreover, the Dose.FC.LYZ.S is reported as 0.014 log2 fold change in test [2] (dose 0.08 uM), −0.032 log2 fold change in test [2] (dose 0.40 uM), 0.028 log2 fold change in test [2] (dose 2.00 uM) and −0.033 log2 fold change in test [2] (dose 10.00 uM). The Dose.FC.CTG in test [3] (dose 0.08 uM) is on record as −0.240 log2 fold change; in test [3] (dose 0.40 uM) it was −0.098 log2 fold change; in test [3] (dose 2.00 uM) it was 0.042 log2 fold change; in test [3] (dose 10.00 uM) it was −0.079 log2 fold change. Besides, the Z.CTG is given as −0.572 in test [3] (dose 0.08 uM), −0.235 in test [3] (dose 0.40 uM), 0.101 in test [3] (dose 2.00 uM) and −0.188 in test [3] (dose 10.00 uM).
Take `CCOc1nc2cccc(C(=O)O)c2n1Cc1ccc(-c2ccccc2-c2nnn[nH]2)cc1` [Candesartan]: the Dose.FC.LYZ.NS in test [1] (dose 0.08 uM) is given as 0.013 log2 fold change; in test [1] (dose 0.40 uM), −0.015 log2 fold change; in test [1] (dose 2.00 uM) it was 0.007 log2 fold change; in test [1] (dose 10.00 uM) it was −0.051 log2 fold change. Moreover, the Z.LYZ.NS in test [1] (dose 0.08 uM) is given as 0.113; in test [1] (dose 0.40 uM), −0.128; in test [1] (dose 2.00 uM), 0.065; in test [1] (dose 10.00 uM), −0.442. The Dose.FC.LYZ.S in test [2] (dose 0.08 uM) is −0.015 log2 fold change; in test [2] (dose 0.40 uM) it was −0.032 log2 fold change; in test [2] (dose 2.00 uM) it was −0.092 log2 fold change; in test [2] (dose 10.00 uM), −0.075 log2 fold change. The Dose.FC.CTG was −0.003 log2 fold change in test [3] (dose 0.08 uM), −0.125 log2 fold change in test [3] (dose 0.40 uM), −0.198 log2 fold change in test [3] (dose 2.00 uM) and −0.253 log2 fold change in test [3] (dose 10.00 uM).
Regarding `C[C@H](CS)C(=O)N1CCC[C@H]1C(=O)O` [Captopril], the Dose.FC.LYZ.NS in test [1] (dose 0.08 uM) is recorded as 0.059 log2 fold change; in test [1] (dose 0.40 uM), 0.035 log2 fold change; in test [1] (dose 2.00 uM), 0.033 log2 fold change; in test [1] (dose 10.00 uM), 0.153 log2 fold change. Further, the Z.LYZ.NS turned out to be 0.511 in test [1] (dose 0.08 uM), 0.307 in test [1] (dose 0.40 uM), 0.285 in test [1] (dose 2.00 uM) and 1.330 in test [1] (dose 10.00 uM). Besides, the Dose.FC.LYZ.S in test [2] (dose 0.08 uM) was 0.049 log2 fold change; in test [2] (dose 0.40 uM), 0.109 log2 fold change; in test [2] (dose 2.00 uM), 0.051 log2 fold change; in test [2] (dose 10.00 uM), 0.077 log2 fold change. In addition, the Dose.FC.CTG is listed as −0.056 log2 fold change in test [3] (dose 0.08 uM), 0.108 log2 fold change in test [3] (dose 0.40 uM), 0.123 log2 fold change in test [3] (dose 2.00 uM) and 0.107 log2 fold change in test [3] (dose 10.00 uM).
In the case of `COc1ccccc1OCCNCC(O)COc1cccc2[nH]c3ccccc3c12` (stereo not drawn) [Carvedilol], the Dose.FC.LYZ.NS is 0.002 log2 fold change in test [1] (dose 0.08 uM), −0.020 log2 fold change in test [1] (dose 0.40 uM), 0.099 log2 fold change in test [1] (dose 2.00 uM) and −0.053 log2 fold change in test [1] (dose 10.00 uM). Further, the Z.LYZ.NS is 0.021 in test [1] (dose 0.08 uM), −0.175 in test [1] (dose 0.40 uM), 0.866 in test [1] (dose 2.00 uM) and −0.464 in test [1] (dose 10.00 uM). In addition, the Dose.FC.LYZ.S is −0.009 log2 fold change in test [2] (dose 0.08 uM), −0.079 log2 fold change in test [2] (dose 0.40 uM), −0.087 log2 fold change in test [2] (dose 2.00 uM) and 0.019 log2 fold change in test [2] (dose 10.00 uM). For the same molecule, the Dose.FC.CTG in test [3] (dose 0.08 uM) was 0.057 log2 fold change; in test [3] (dose 0.40 uM) it was −0.014 log2 fold change; in test [3] (dose 2.00 uM), −0.151 log2 fold change; in test [3] (dose 10.00 uM) it was −0.242 log2 fold change.
On to `Cc1ccc(-c2cc(C(F)(F)F)nn2-c2ccc(S(N)(=O)=O)cc2)cc1` [Celecoxib], for which the Dose.FC.LYZ.NS is recorded as −0.041 log2 fold change in test [1] (dose 0.08 uM), −0.053 log2 fold change in test [1] (dose 0.40 uM), −0.084 log2 fold change in test [1] (dose 2.00 uM) and −0.099 log2 fold change in test [1] (dose 10.00 uM). Also, the Z.LYZ.NS in test [1] (dose 0.08 uM) is −0.359; in test [1] (dose 0.40 uM), −0.463; in test [1] (dose 2.00 uM), −0.734; in test [1] (dose 10.00 uM) it was −0.865. Further, the Dose.FC.LYZ.S in test [2] (dose 0.08 uM) is −0.067 log2 fold change; in test [2] (dose 0.40 uM), −0.068 log2 fold change; in test [2] (dose 2.00 uM), −0.097 log2 fold change; in test [2] (dose 10.00 uM), −0.133 log2 fold change. In addition, the Dose.FC.CTG in test [3] (dose 0.08 uM) is given as −0.034 log2 fold change; in test [3] (dose 0.40 uM), −0.299 log2 fold change; in test [3] (dose 2.00 uM), −0.118 log2 fold change; in test [3] (dose 10.00 uM), −0.128 log2 fold change.
